Several values for one entry are separate records, joined by “and”; a condition that tells them apart may be missing. Equal values may be shown once.
Conditions: Crystal, Calculated from knudsen effusion weight loss

[I][La]([I])[I] [lanthanum triiodide]
Conditions | vapor or sublimation pressure
827 K | 4.7e-07 kPa
845 K | 1.1e-06 kPa
862 K | 2.5e-06 kPa
869 K | 3.5e-06 kPa
875 K | 4.7e-06 kPa
884 K | 7.1e-06 kPa
905 K | 1.7e-05 kPa
910 K | 2.2e-05 kPa and 8.9e-06 kPa
921 K | 1.6e-05 kPa and 3.4e-05 kPa
937 K | 6.5e-05 kPa and 4e-05 kPa
943 K | 8.1e-05 kPa and 5.4e-05 kPa
953 K | 0.00012 kPa and 9.1e-05 kPa
962 K | 0.00017 kPa and 0.00014 kPa
978 K | 0.00031 kPa and 0.00033 kPa

From the NIST ThermoML archive (doi:10.1016/j.tca.2015.09.008)
